Here are results for 3 molecules from patent publication US20100075907A1, “NEUROMEDIN U RECEPTOR AGONISTS AND USES THEREOF” (priority 2006, published 2010).

Non-standard residues stand in square brackets, D forms with d. Residues, ends and D or L forms follow the SMILES beside them. *: point of attachment. Succinimide(1-Et,3-yl) = CCN1C(=O)CC(*)C1=O

Assay [1] has as its target T1, rat NMUR1-TTG (Rattus norvegicus, UniProt Q9JJI5).
T1 sequence (Q9JJI5 1-425): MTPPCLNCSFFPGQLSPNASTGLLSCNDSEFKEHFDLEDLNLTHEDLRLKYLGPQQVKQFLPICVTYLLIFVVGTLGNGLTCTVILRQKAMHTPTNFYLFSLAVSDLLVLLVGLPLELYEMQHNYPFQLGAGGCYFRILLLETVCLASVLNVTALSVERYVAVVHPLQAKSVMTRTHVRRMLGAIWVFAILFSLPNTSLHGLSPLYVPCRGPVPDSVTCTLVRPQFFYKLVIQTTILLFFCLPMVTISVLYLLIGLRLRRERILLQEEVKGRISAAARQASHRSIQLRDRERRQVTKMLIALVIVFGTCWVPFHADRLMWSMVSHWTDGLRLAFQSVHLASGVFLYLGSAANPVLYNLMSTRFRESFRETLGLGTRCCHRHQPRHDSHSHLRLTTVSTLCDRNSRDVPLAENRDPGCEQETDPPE
The experiment in a line: 125I-hNMU-25 binding assay, rat R1-TTG. On the set-up: expressed in transfected cells; host or cells: HEK-293 FLP-In cells (pcDNA5). As to conditions: for IC50: binding. As for the experimental part:
(§1) Confluent cell monolayers expressing NMU receptors (the HEK cells described above) were harvested with phosphate buffered saline, collected by centrifugation, and resuspended in membrane buffer (50 mM TrisCl pH 7.4, 5 mM MgCl2, 1× Protease Inhibitor Cocktail, 10 μM phosphoramidon). After the cell pellet was homogenized, the solution was centrifuged at 18,000 rpm for 20 minutes at 4° C. The pellet was resuspended in membrane buffer to yield a final concentration of 0.5-5 μg/μL of membrane and stored at −80° C.
(§2) Experiments were performed in assay buffer (25 mM TrisCl, pH 7.4, 10 mM MgCl2, 2 mM EDTA, 1× Protease Inhibitor Cocktail, 100 μg/mL Bacitricin, 10 μM phosphoramidon) in 200 μL volumes in a 96-well format using 2-5 μg of membrane and 0.1 nM ^125I-hNMU-25 (about 12,000 cpm/well). For non-specific binding, 1 μM hNMU-25 was added. About 5 μL of peptides were added to measure antagonist activity, and the entire reaction was incubated at room temperature with shaking for 80 minutes. The reaction was terminated by rapid filtration through 0.3% poly-ethylenimine presoaked Millipore 96-well filter plates and washed with ice-cold buffer (5 mM TrisCl pH 7.4, 10 mM MgCl2, 2.5 mM EDTA, 0.04% Triton X-100). Plates were air-dried overnight at room temperature and recovered radioactivity was determined by standard scintillation counting. IC50 values were determined using GraphPad Prism software.
(§3) Concentration-response curves and radioligand-binding data were fitted using Prism (GraphPad Software). Results are summarized below in Tables 8 and 9.

The next assay deals with T2, mouse NMUR1-ATG (Mus musculus, UniProt O55040).
T2 sequence (O55040 1-428): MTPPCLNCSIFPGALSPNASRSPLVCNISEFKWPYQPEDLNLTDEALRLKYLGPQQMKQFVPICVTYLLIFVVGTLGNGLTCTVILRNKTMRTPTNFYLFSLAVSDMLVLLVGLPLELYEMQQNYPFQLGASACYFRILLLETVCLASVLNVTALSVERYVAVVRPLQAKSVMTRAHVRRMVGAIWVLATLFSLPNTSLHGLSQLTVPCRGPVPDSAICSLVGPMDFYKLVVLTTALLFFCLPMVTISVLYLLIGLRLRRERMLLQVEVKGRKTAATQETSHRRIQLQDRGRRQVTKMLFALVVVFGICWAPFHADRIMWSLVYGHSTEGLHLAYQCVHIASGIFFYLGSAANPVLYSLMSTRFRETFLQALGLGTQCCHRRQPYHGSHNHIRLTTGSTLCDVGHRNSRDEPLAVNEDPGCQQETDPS
The experiment in a line: 125I-hNMU-25 binding assay, mouse R1-ATG. On the set-up: expressed in transfected cells; host or cells: HEK-293 FLP-In cells (pcDNA5). As to conditions: for IC50: binding. As for the experimental part:
as §1, §2, §3

For the next assay, the target named is rat NMUR2 (Rattus norvegicus, UniProt Q9ESQ4). The experiment in a line: 125I-hNMU-25 binding assay, rat R2. On the set-up: expressed in transfected cells; host or cells: HEK-293 FLP-In cells (pcDNA5). As to conditions: for IC50: binding. As to the method: as §1, §2, §3
Sequence of rat NMUR2 (Q9ESQ4 whole entry): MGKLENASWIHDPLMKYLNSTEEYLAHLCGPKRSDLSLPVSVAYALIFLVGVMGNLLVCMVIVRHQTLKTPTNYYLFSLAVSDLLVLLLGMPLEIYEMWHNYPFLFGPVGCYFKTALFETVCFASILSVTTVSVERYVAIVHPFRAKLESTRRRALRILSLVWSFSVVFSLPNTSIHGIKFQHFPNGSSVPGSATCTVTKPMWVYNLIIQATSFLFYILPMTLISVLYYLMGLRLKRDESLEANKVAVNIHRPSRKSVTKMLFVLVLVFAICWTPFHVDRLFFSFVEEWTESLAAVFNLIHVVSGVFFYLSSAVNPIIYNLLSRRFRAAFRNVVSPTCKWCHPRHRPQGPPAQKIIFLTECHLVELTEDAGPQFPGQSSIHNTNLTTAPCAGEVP
In another assay the target is T3, Mouse NMUR1-CTG (Mus musculus, UniProt O55040).
T3 sequence (O55040 1-428): T2 sequence (O55040 1-428)
The experiment in a line: 125I-hNMU-25 binding assay, mouse R1-CTG. On the set-up: expressed in transfected cells; host or cells: HEK-293 FLP-In cells (pcDNA5). As to conditions: for IC50: binding. As for the experimental part: as §1, §2, §3

The target in a further assay is hNMUR2 (Homo sapiens, UniProt Q9GZQ4). As to the kind of experiment: FLIPR calcium mobilization assay, human NMUR2. Type of assay: cell-based. As to conditions: functional data, human R2. On the set-up: expressed in transfected cells; host or cells: FLP-In CHO or HEK-293 FLP-In cells (pcDNA5); HEK-293/aeq17 lines (pcDNA3.1) were also made. A general note: Calcium assays in cells follow changes in intracellular calcium, usually with a dye or a luminescent sensor.
Sequence of hNMUR2 (Q9GZQ4 whole entry): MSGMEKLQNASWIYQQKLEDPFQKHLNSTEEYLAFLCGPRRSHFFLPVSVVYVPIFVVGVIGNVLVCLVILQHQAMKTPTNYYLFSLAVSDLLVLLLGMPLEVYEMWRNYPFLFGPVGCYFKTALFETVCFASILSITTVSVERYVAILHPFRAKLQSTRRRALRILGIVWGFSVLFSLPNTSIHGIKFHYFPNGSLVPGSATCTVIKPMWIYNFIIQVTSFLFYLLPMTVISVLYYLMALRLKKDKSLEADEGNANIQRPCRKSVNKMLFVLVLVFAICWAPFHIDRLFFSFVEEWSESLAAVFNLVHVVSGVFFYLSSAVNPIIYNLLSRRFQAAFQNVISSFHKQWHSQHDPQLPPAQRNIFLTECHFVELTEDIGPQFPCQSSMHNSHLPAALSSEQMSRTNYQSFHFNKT

The target of a further assay is mouse NMUR2 (Mus musculus, UniProt Q8BZ39). As to the kind of experiment: 125I-hNMU-25 binding assay, mouse R2. On the set-up: expressed in transfected cells; host or cells: HEK-293 FLP-In cells (pcDNA5). As to conditions: for IC50: binding. As for the experimental part: as §1, §2, §3
Sequence of mouse NMUR2 (Q8BZ39 whole entry): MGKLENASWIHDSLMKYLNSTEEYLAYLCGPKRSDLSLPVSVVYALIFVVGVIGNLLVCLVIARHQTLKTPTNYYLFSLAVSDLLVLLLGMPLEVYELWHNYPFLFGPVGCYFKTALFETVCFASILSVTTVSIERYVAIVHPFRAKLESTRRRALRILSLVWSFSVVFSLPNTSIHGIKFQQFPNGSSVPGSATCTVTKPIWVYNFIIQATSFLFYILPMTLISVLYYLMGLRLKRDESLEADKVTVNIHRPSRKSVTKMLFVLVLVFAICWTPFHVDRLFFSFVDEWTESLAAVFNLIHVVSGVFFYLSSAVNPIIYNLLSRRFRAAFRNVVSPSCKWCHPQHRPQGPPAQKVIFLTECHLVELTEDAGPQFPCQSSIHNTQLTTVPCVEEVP
Another assay has as its target T4, rat NMUR1-ATG (Rattus norvegicus, UniProt Q9JJI5).
T4 sequence (Q9JJI5 1-425): T1 sequence (Q9JJI5 1-425)
The experiment in a line: 125I-hNMU-25 binding assay, rat R1-ATG. On the set-up: expressed in transfected cells; host or cells: HEK-293 FLP-In cells (pcDNA5). As to conditions: for IC50: binding. As to the method: as §1, §2, §3

For assay [2], the target named is T1, rat NMUR1-TTG. As to the kind of experiment: FLIPR calcium mobilization assay, rat NMUR1-TTG. Format: cell-based. On the set-up: expressed in transfected cells; host or cells: FLP-In CHO or HEK-293 FLP-In cells (pcDNA5). As to conditions: functional data, rat R1-TTG.

One may read the IC50 as the concentration that inhibits the measured activity by half. In the case of `CCN1C(=O)CC(SC[C@H](NC(C)=O)C(=O)N[C@@H](Cc2ccccc2)C(=O)N[C@@H](CCCNC(=N)N)C(=O)N[C@H](C(=O)N[C@@H](CC(=O)O)C(=O)N[C@@H](CCC(=O)O)C(=O)N[C@@H](CCC(=O)O)C(=O)N[C@@H](Cc2ccccc2)C(=O)N[C@@H](CCC(N)=O)C(=O)N[C@@H](CO)C(=O)N2CCC[C@H]2C(=O)N[C@@H](Cc2ccccc2)C(=O)N[C@@H](C)C(=O)N[C@@H](CO)C(=O)N[C@@H](CCC(N)=O)C(=O)N[C@@H](CO)C(=O)N[C@@H](CCCNC(=N)N)C(=O)NCC(=O)N[C@@H](Cc2ccc(O)cc2)C(=O)N[C@@H](Cc2ccccc2)C(=O)N[C@H](C)C(=O)N[C@@H](Cc2c[nH]c3ccccc23)C(=O)N[C@@H](CCCNC(=N)N)C(=O)N2CCC[C@H]2C(=O)N[C@@H](CCCNC(=N)N)C(=O)N[C@@H](CC(N)=O)C(N)=O)C(C)C)C1=O` (stereo partly shown) [NMU13] (Ac-C(Succinimide(1-Et,3-yl))FRVDEEFQSPFASQSRGYF[dA]WRPRN-NH2), the “% inhibition of NMU-25 binding” value on rat NMUR1-TTG [1] came out at 100%; on mouse NMUR1-ATG, 100%; on rat NMUR2, 0%; at Mouse NMUR1-CTG, 100%; on mouse NMUR2 it was 30%; on rat NMUR1-ATG, 100%. In addition, the IC50 at rat NMUR2, on hNMUR2 and at mouse NMUR2 was greater than 1000 nM throughout.

Consider “H-FRVDEEFQSPFASQSRGYFLFRPRN-NH2 [hNMU-25, reference compound]”, for which the IC50 on rat NMUR1-TTG [2] is 1 nM; on rat NMUR1-TTG [1], 0.2 nM; at mouse NMUR1-ATG, 0.4 nM; on rat NMUR2, 0.6 nM; at Mouse NMUR1-CTG it was 0.15 nM; on hNMUR2, 0.8 nM. In addition, the figures for the half-inhibitory concentration (IC50) at mouse NMUR2 and at rat NMUR1-ATG were 0.2 nM and 1.2 nM, respectively.

`CC(C)C[C@@H](NC(=O)[C@H](Cc1ccccc1)NC(=O)[C@H](Cc1ccc(O)cc1)NC(=O)CNC(=O)[C@H](CCCNC(=N)N)NC(=O)[C@H](CO)NC(=O)[C@H](CCC(N)=O)NC(=O)[C@H](CO)NC(=O)[C@H](C)NC(=O)[C@H](Cc1ccccc1)NC(=O)[C@@H]1CCCN1C(=O)[C@H](CO)NC(=O)[C@H](CCC(N)=O)NC(=O)[C@H](Cc1ccccc1)NC(=O)[C@H](CCC(=O)O)NC(=O)[C@H](CCC(=O)O)NC(=O)[C@H](CC(=O)O)NC(=O)[C@@H](NC(=O)[C@H](CCCNC(=N)N)NC(=O)[C@@H](N)Cc1ccccc1)C(C)C)C(=O)N[C@@H](Cc1c[nH]c2ccccc12)C(=O)N[C@@H](CCCNC(=N)N)C(=O)N1CCC[C@H]1C(=O)N[C@@H](CCCNC(=N)N)C(=O)N[C@@H](CC(N)=O)C(N)=O` [Agonist H] (H-FRVDEEFQSPFASQSRGYF[dL]WRPRN-NH2; N-terminus assumed): the IC50 on rat NMUR1-TTG [2] is 153 nM; on rat NMUR1-TTG [1], 11 nM; at mouse NMUR1-ATG it was 66 nM; on rat NMUR2, greater than 1000 nM; on Mouse NMUR1-CTG, 25 nM; on hNMUR2, greater than 1000 nM. Besides, the IC50 on mouse NMUR2 is greater than 1000 nM; on rat NMUR1-ATG, 15.9 nM. Moreover, the “% inhibition of NMU-25 binding” value at rat NMUR1-TTG [1] came out at 100%; on mouse NMUR1-ATG, 77%; at rat NMUR2, 0%; on Mouse NMUR1-CTG, 83%; at mouse NMUR2, 20%; on rat NMUR1-ATG, 100%.
